Measured values from ChEMBL document CHEMBL5634108, “The latest perspectives of small molecules FMS kinase inhibitors” (Eur J Med Chem, 2023).
pIC50: −log10 of the molar value. One block for each compound: values may come before it.

Assays:
[1] = molecular target: T1, NT-3 growth factor receptor (Homo sapiens, UniProt Q16288); experiment: Inhibition of TRKC (unknown origin) by TR-FRET assay
[2] = molecular target: T2, Tyrosine-protein kinase Lck (Homo sapiens, UniProt P06239); experiment: Inhibition of LCK (unknown origin) using TK as substrate incubated for 30 mins by HTRF assay
[3] = molecular target: T1, NT-3 growth factor receptor; experiment: Inhibition of TRKC (unknown origin)
[4] = molecular target: Vascular endothelial growth factor receptor 1 (Homo sapiens, UniProt P17948); experiment: Inhibition of FLT1 (unknown origin)
[5] = molecular target: T3, Vascular endothelial growth factor receptor 2 (Homo sapiens, UniProt P35968); experiment: Inhibition of VEGFR-2 (unknown origin) in presence of ATP incubated for 45 mins by ELISA method
T3 sequence (P35968 whole entry): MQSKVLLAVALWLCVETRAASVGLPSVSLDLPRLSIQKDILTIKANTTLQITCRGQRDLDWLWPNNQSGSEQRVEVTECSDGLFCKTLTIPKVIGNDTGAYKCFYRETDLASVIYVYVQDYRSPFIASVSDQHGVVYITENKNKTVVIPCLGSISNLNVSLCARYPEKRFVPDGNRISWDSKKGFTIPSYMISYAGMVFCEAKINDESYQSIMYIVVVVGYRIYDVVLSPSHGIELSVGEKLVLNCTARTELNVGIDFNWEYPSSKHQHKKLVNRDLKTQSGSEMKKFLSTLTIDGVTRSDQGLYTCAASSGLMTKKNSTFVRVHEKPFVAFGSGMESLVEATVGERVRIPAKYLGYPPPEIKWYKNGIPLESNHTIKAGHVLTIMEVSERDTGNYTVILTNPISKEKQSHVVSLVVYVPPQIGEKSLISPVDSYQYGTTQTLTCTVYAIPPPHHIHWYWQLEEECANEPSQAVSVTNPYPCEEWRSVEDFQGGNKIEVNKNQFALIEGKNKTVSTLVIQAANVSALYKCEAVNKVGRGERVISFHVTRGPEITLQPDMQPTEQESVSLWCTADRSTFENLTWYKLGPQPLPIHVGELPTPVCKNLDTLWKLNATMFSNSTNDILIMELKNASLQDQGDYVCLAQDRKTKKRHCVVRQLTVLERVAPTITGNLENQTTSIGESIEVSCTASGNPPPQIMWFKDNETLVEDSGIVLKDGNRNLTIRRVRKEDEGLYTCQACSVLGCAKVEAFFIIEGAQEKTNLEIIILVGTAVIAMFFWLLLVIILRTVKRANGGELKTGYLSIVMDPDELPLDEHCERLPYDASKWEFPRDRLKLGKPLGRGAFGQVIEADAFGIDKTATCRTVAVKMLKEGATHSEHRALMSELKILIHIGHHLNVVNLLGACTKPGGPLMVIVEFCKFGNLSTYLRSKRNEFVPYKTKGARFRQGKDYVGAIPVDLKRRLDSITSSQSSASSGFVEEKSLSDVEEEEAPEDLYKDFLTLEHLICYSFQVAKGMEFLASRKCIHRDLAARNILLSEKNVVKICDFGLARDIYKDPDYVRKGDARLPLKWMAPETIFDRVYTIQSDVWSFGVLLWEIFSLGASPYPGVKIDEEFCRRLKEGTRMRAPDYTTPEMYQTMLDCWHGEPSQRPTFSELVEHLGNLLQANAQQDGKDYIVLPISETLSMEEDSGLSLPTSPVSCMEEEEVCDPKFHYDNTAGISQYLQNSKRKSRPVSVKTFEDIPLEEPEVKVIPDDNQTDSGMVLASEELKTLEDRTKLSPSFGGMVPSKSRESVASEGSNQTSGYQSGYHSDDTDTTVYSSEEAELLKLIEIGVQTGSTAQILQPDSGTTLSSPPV

[6] = molecular target: T4, Macrophage colony-stimulating factor 1 receptor (Homo sapiens, UniProt P07333); experiment: Inhibition of FMS (unknown origin) by kinase assay
T4 sequence (P07333 whole entry): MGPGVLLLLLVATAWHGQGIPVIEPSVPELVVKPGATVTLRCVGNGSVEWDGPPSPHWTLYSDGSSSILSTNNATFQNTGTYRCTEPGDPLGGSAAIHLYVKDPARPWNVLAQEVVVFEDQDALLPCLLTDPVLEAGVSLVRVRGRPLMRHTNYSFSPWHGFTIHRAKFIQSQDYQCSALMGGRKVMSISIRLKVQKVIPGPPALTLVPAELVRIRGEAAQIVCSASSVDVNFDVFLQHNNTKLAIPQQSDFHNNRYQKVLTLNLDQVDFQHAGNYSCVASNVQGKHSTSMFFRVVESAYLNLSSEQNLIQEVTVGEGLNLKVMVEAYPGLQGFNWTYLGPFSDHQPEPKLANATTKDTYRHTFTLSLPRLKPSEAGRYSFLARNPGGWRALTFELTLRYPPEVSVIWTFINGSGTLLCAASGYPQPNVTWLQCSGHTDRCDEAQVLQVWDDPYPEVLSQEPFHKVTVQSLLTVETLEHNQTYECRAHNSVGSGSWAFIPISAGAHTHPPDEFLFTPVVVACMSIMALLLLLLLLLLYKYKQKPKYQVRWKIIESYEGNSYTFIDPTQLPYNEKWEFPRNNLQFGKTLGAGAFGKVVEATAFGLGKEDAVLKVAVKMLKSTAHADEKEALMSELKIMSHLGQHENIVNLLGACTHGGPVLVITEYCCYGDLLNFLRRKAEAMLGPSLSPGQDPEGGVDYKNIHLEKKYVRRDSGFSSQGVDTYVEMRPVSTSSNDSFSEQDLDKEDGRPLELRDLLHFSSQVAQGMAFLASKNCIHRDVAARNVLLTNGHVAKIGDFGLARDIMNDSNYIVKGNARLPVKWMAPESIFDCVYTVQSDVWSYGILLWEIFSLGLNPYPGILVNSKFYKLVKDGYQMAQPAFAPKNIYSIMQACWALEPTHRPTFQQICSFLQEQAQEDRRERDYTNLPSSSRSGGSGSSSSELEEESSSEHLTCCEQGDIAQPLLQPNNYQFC

SF-268 = experiment: Growth inhibition of human SF-268 cells by sulforhodamine B assay; assay type: functional
[7] = molecular target: T5, Mast/stem cell growth factor receptor Kit (Homo sapiens, UniProt P10721); experiment: Inhibition of c-Kit (unknown origin) in presence of ATP
T5 sequence (P10721 whole entry): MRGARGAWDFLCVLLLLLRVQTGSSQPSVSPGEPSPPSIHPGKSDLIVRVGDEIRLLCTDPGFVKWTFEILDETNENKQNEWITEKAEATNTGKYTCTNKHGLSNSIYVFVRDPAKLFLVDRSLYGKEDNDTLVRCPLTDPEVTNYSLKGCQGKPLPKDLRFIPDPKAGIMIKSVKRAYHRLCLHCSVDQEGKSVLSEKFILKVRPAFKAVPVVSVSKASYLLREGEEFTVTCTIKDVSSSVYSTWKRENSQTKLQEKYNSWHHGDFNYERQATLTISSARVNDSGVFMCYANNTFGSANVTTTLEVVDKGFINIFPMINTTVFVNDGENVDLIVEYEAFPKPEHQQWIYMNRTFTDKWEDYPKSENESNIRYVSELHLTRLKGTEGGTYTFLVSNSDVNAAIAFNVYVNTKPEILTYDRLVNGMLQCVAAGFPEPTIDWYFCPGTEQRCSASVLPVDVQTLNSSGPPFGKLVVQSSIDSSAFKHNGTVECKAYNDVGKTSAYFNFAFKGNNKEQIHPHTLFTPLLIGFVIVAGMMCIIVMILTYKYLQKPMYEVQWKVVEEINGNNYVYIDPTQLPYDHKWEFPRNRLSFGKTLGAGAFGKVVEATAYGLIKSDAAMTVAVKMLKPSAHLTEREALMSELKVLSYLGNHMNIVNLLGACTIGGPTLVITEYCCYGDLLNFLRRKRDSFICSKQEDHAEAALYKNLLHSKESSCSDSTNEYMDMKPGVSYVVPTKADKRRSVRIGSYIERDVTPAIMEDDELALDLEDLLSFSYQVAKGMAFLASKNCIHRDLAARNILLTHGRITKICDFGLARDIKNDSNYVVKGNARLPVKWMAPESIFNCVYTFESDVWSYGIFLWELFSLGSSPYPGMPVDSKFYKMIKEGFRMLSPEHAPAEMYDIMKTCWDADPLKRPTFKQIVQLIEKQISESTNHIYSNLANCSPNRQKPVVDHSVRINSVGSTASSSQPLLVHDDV

[8] = molecular target: Receptor-type tyrosine-protein kinase FLT3 (Homo sapiens) (UniProt P36888); experiment: Inhibition of FLT3 (unknown origin) at 10 uM by biochemical Hotspot kinase assay relative to control
[9] = molecular target: T3, Vascular endothelial growth factor receptor 2; experiment: Inhibition of KDR (unknown origin)
Aurora kinase C [10] = molecular target: T6, Aurora kinase C (Homo sapiens, UniProt Q9UQB9); experiment: Inhibition of AURKC (unknown origin)
T6 sequence (Q9UQB9 whole entry): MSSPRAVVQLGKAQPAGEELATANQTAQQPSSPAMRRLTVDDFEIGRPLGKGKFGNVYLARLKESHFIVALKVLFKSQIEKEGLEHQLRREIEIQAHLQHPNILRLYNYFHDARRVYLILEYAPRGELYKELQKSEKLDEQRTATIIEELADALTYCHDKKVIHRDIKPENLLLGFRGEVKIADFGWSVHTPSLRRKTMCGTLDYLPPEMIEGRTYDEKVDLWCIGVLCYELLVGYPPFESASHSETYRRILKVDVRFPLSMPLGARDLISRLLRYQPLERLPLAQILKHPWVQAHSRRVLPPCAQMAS

[11] = molecular target: T5, Mast/stem cell growth factor receptor Kit; experiment: Inhibition of KIT (unknown origin) using ATP as substrate incubated for 1 hrs by ELISA
[12] = molecular target: Receptor-type tyrosine-protein kinase FLT3 (Homo sapiens, UniProt P36888, ITD); experiment: Inhibition of FLT3 ITD mutant (unknown origin) preincubated for 60 mins followed by ATP addition and measured after 1 hr by ADP-Glo assay
Aurora kinase C [13] = molecular target: T6, Aurora kinase C; experiment: Inhibition of human AURKC by discoverX kinome scan assay
[14] = molecular target: T2, Tyrosine-protein kinase Lck; experiment: Inhibition of LCK (unknown origin) at 10 uM using 33P-ATP as substrate by biochemical Hotspot kinase assay relative to control
Target sequence in this assay (P06239 2-509 limits assumed): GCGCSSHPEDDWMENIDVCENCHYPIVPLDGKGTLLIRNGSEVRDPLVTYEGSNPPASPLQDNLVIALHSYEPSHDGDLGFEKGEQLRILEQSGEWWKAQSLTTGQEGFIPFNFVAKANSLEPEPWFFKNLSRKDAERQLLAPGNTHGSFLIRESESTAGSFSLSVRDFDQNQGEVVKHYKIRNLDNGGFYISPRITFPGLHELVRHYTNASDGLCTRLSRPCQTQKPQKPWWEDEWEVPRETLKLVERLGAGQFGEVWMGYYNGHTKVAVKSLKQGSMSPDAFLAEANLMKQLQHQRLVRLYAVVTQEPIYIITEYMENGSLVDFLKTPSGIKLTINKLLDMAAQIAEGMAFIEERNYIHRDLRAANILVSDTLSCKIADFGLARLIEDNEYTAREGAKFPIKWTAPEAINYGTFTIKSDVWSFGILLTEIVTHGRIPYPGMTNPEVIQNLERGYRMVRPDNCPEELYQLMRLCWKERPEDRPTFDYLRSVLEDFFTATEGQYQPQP

[15] = molecular target: T7, Tyrosine-protein kinase receptor UFO (Homo sapiens, UniProt P30530); experiment: Inhibition of AXL (unknown origin) by FRET assay
T7 sequence (P30530 whole entry): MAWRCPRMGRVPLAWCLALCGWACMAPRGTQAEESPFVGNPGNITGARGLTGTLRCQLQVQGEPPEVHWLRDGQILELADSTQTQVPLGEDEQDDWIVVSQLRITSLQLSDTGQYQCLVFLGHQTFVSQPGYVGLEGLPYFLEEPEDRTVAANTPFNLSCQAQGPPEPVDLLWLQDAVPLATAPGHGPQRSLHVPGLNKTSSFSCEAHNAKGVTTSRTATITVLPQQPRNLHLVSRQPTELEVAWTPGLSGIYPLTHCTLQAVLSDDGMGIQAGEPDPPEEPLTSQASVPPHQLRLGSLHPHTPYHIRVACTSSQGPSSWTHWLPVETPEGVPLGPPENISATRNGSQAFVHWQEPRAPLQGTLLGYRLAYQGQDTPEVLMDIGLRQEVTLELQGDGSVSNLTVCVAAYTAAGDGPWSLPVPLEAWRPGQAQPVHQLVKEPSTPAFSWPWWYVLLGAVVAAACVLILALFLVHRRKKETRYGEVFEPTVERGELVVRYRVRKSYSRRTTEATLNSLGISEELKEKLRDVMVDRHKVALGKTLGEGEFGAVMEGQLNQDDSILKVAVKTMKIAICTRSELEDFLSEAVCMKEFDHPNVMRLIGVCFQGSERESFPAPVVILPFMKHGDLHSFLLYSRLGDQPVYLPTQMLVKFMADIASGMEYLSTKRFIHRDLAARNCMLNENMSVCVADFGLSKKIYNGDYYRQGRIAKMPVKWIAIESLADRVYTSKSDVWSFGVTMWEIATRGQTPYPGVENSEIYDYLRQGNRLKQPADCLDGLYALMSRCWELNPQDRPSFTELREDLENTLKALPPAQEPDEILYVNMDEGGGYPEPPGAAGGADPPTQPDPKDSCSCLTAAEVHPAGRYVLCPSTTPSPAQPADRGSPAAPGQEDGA

[16] = molecular target: T4, Macrophage colony-stimulating factor 1 receptor; experiment: Inhibition of CSF1R (unknown origin)
[17] = molecular target: Receptor-type tyrosine-protein kinase FLT3 (Homo sapiens) (UniProt P36888); experiment: Inhibition of FLT3 (unknown origin) at 10 uM relative to control
[18] = molecular target: T8, Receptor-type tyrosine-protein kinase FLT3 (Homo sapiens, UniProt P36888); experiment: Inhibition of FLT3 (unknown origin) by enzymatic assay
T8 sequence (P36888 whole entry): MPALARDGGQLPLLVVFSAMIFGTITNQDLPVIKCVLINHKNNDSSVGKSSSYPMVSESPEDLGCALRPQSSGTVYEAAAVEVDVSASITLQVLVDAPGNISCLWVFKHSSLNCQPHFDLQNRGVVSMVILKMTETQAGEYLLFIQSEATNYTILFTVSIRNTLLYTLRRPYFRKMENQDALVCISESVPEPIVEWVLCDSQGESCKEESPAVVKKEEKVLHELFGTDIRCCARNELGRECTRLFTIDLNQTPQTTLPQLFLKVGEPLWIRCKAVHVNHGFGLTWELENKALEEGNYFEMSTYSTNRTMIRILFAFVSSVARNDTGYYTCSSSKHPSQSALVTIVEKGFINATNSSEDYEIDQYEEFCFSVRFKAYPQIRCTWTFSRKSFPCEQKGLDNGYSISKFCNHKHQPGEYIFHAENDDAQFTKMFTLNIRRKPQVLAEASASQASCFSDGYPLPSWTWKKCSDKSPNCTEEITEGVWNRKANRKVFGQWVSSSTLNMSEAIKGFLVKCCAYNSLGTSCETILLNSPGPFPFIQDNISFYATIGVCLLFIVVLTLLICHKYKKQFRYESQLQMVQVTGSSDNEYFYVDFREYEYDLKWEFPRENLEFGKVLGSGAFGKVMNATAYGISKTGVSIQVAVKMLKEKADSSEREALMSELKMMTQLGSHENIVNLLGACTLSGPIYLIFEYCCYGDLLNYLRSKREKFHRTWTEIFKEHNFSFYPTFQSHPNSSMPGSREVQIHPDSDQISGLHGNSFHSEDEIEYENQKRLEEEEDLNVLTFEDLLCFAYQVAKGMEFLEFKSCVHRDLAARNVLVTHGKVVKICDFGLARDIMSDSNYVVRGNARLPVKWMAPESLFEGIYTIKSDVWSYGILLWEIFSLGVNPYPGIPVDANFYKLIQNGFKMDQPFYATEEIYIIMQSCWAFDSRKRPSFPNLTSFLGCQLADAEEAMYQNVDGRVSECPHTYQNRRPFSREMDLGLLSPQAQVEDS

T1 sequence (Q16288 whole entry): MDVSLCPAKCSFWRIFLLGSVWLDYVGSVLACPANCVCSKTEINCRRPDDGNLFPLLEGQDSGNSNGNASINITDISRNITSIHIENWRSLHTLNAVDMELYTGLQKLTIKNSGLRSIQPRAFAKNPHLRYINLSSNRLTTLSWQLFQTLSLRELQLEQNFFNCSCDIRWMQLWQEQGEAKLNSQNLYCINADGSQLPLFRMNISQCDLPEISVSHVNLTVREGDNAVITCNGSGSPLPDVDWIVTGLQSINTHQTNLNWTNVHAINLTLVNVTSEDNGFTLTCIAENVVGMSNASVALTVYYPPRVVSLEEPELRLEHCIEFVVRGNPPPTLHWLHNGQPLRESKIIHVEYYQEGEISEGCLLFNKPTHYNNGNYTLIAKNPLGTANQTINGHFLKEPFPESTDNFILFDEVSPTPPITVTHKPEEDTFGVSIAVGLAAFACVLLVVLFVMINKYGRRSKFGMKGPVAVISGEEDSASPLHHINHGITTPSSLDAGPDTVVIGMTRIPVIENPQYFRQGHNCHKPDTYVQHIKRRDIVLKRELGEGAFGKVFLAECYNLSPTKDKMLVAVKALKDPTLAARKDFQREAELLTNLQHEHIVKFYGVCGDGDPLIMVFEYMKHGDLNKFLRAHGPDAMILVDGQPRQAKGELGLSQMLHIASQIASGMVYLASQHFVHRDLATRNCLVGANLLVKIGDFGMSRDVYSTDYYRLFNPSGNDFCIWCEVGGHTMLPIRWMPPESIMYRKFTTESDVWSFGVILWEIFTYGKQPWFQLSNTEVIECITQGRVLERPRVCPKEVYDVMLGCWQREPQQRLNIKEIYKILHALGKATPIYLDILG

pIC50 [1]: 7.70
pIC50 [2]: 6.07
pIC50 [3]: 6.05
pIC50 [4]: 6.06
pIC50 [5]: 6.46
SMILES: FC(F)(F)c1ccc(CNc2ccc(Cc3c[nH]c4ncc(Cl)cc34)cn2)cn1 [PEXIDARTINIB]

pIC50 [6]: 7.82
SMILES: COc1cc(NC(=O)Nc2cnc(Nc3ccc(N4CCOCC4)cc3)nc2Oc2cccc(OC)c2)cc(OC)c1
GI50 (SF-268): 50300 nM

pIC50 [7]: 8.95
SMILES: CNC(=O)c1nccc2cc(-c3cncc(Nc4ccc(OC5CC5)nc4)c3C)[nH]c12

inhibition [8]: 14.5%
SMILES: COc1ccc(Oc2nc(Nc3ccc(N4CCCCC4)nc3)ncc2NC(=O)c2cc(OC)cc(OC)c2)cc1

SMILES: COc1nc(F)ccc1CNc1ccc(Cc2c[nH]c3ncc(C)cc23)c(F)n1
pIC50 [9]: 5.96
pIC50 (Aurora kinase C [10]): 6.00
pIC50 [11]: 6.07
pIC50 [12]: 6.41
pIC50 (Aurora kinase C [13]): 7.80

inhibition [14]: 87.7%
SMILES: COc1ccc(Oc2nc(Nc3ccc(N4CCOCC4)cc3)ncc2NC(=O)c2cccc(SC)c2)cc1

pIC50 [15]: 7.82
SMILES: CNC(=O)c1cc2c(Oc3ccc(NC(=S)NC(=O)Cc4ccccc4)cc3F)ccnc2cc1OC [TAS-115]

pIC50 [16]: 7.92
SMILES: COc1ccc(COc2ncc(Oc3ccnc(C(=O)N[11CH3])c3)cc2OC)cc1

pIC50 [16]: 4.24
inhibition [17]: 8.12%
pIC50 [7]: 5.79
SMILES: Cc1nc2[nH]cc(Cc3ccc(NCc4ccc(C(F)(F)F)nc4)nc3)c2c(C)c1O

pIC50 [18]: 6.72
SMILES: CC1(C)CC=C(c2nc(C3CC(C)(C)OC(C)(C)C3)ccc2NC(=O)c2nc(C#N)c[nH]2)CC1 [EDICOTINIB]

pIC50 [16]: 7.52
SMILES: Nc1nccc2c1ccn2-c1cccc(NC(=O)c2ccc(N3CCOCC3)c(C(F)(F)F)c2)c1
